For one data set, the system named is H460 cells. The experiment in a line: MTT cytotoxicity, H460 cells. Type of data set: cell-based. The settings on record: 500 μM, 72 h. Here is the method:
The NSCLC A549 and H460 cells were incubated in 1640 medium containing 10% fetal bovine serum albumin, and these cells were stored in a humidified environment of 37 °C and 5% carbon dioxide.
In order to investigate the cytotoxicity of PEG-CAR-C16 micelles, the cell inhibition rates of A549 and H460 cells were determined by the MTT. Primarily, A549 and H460 cell lines were respectively cultured in 1640 culture medium, then transferred into a 96-well plate and incubated for 24 h under the condition of 37 °C, 5% CO2. Then, CAR and PEG-CAR-C16 micelles solution with different concentrations (15–500 μM) were added into the 96-well plate and incubated for 24, 48, and 72 h, respectively. After added with 10 μL of MTT solution to each well, the cells were incubated at 37 °C for 4 h again. Finally, the solution was removed, 100 μL of DMSO was then added to dissolve the produced formazan crystals and the […] were recorded by microplate reader. The cytotoxicity of PEG-CAR-C16 micelles could be expressed by cell inhibition rate.

The subject of another data set is H460 tumor. The data set can be described thus: In vivo antitumor experiment in H460 tumor-bearing nude mice. The following applies: tail vein injection twice a week for two weeks, CAR 0.75 and 1.5 mg·kg^−1, equivalent PEG-CAR-C16 5.5 and 11.0 mg·kg^−1. Here is the method:
The female nude mice models (5–6 weeks old, 18–22 g) used in the experiment were purchased from Unilever (London, UK), and the experiment was conducted in accordance with the principle of protection of experimental animals. To establish animal model of NSCLC, 0.2 mL of H460 cells with concentration density about 1.0 × 10^7/mL were inoculated to the left axilla of the mice. The volume of tumors was measured and recorded using a vernier caliper.
When the average tumor volume of nude mice inoculated with H460 cells grown to about 100 mm^3, the mice were randomly divided into […] (n = 6) including normal saline group (I, NS), CAR group (II, 0.75 mg·kg^−1), equivalent PEG-CAR-C16 group (IV, 5.5 mg·kg^−1), CAR group (III, 1.5 mg·kg^−1), equivalent PEG-CAR-C16 group (V, 11.0 mg·kg^−1). The mice in each group were given drugs by tail vein injection twice a week for two weeks. The volume of tumor was measured every two days and calculated according to the long diameter a and the short diameter b. The tumor inhibition rate is expressed as follows: tumor volume (Vt)=a×b^2/2.

Data set [1] can be described thus: In vivo pharmacokinetics of Pt after intravenous injection (ICP-MS). On the set-up: species or system Wistar rats. The settings on record: Pt in rats, equivalent CAR dose 1.5 mg·kg^−1. As to the method: To conduct the pharmacokinetic tests, six female Wistar rats (Harlan, Israel, 200 ± 20 g) were randomly administered into two groups primarily. The CAR solution was prepared by dissolving CAR in 5% glucose solution, and the PEG-CAR-C16 polymer micelles were prepared by hydrating the thin film using 5% glucose solution during the micelle formation. Then CAR and PEG-CAR-C16 polymer micelles (the equivalent CAR does was 1.5 mg·kg^−1) were injected intravenously. After collected from the treated […] within a specified time point, the blood samples were centrifuged at 3000 rpm for 10 min, and then the centrifuged samples were frozen at −20 °C for further use. All the blood samples were processed by microwave digestion and then the Pt concentration was examined by using inductively coupled plasma mass spectrometry (ICP-MS). The representative pharmacokinetic parameters were calculated by DAS2.0.

Take `N.N.O=C([O-])C1(C(=O)[O-])CCC1.[Pt+2]` [CAR, Carboplatin]: the cell viability rate with H460 cells was determined as 51.6%. Moreover, the “tumor volume growth / tumor inhibition effect” value with H460 tumor is on record as “could control the growth of tumor volume effectively”. Moreover, in data set [1], the “AUC0–∞” value was found to be 4.84 ± 1.58 mg·L^–1·h, the CL was 0.57 ± 0.11 L·h^–1·kg^–1, the “MRT0–∞” value is given as 4.72 ± 0.91 h and the Vd was determined as 0.66 ± 0.15 L·kg^–1. For the same compound, the t1/2 in data set [1] is on record as 1.90 ± 1.91 h.

Values taken from paper PMC8238065, “Prodrug-based nano-delivery strategy to improve the antitumor ability of carboplatin in vivo and in vitro” (Drug Delivery, 2021).
